Measurements reported in ChEMBL document CHEMBL1201862, “PubChem BioAssay data set” (2004).
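Following 48 hours of exposure in 96-well plates, responses at five concentrations were used to interpolate endpoints linearly. The concentration for 50% growth inhibition is given as GI50.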 Activity calls are given as the source filed them. Cut-off read from the data, not from the text of the source: active = GI50 up to about 1.1 µM and inactive = higher.

What was measured:
Assay in all cases: inhibition of tumour cell growth, NCI panel, 48 h
[1] = test system: OVCAR-4
[2] = test system: M14
[3] = test system: 786-0
[4] = test system: T47D
[5] = test system: RXF 393
[6] = test system: UACC-62
[7] = test system: COLO 205
[8] = test system: EKVX
[9] = test system: Hs-578T
[10] = test system: K562
[11] = test system: HCC 2998
[12] = test system: Malme-3M
[13] = test system: NCI-H460
[14] = test system: A549
[15] = test system: HT-29
[16] = test system: KM12
[17] = test system: PC-3
[18] = test system: HCT-116
[19] = test system: LOX IMVI
[20] = test system: OVCAR-5

Row | Structure (SMILES) | GI50 [1] | GI50 [2] | GI50 [3] | GI50 [4] | GI50 [5] | GI50 [6] | GI50 [7] | GI50 [8] | GI50 [9] | GI50 [10] | GI50 [11] | GI50 [12] | GI50 [13] | GI50 [14] | GI50 [15] | GI50 [16] | GI50 [17] | GI50 [18] | GI50 [19] | GI50 [20]
1 | NC(=O)c1ncn(C2OC(CO)C(O)C2O)c1NC=O (stereo not given) | > 100 µM (inactive) | > 100 µM (inactive) | > 100 µM (inactive) | > 100 µM (inactive) | > 100 µM (inactive) | > 100 µM (inactive) | > 100 µM (inactive) | > 100 µM (inactive) | > 100 µM (inactive) | > 100 µM (inactive) | > 100 µM (inactive) | > 100 µM (inactive) | > 100 µM (inactive) | > 100 µM (inactive) | > 100 µM (inactive) | > 100 µM (inactive) | > 100 µM (inactive) | > 100 µM (inactive) | > 100 µM (inactive) | > 100 µM (inactive)
2 | C=CC(C)(C)c1cc([C@@H]2COc3cc(O)ccc3C2=O)c(O)c(OC)c1OC | 3.94 µM (inactive) | 15.5 µM (inactive) | 16 µM (inactive) | 3.24 µM (inactive) | 0.0173 µM (active) | 13 µM (inactive) | 22 µM (inactive) | 12.1 µM (inactive) | 16.4 µM (inactive) | 9.66 µM (inactive) | 17.1 µM (inactive) | 10.8 µM (inactive) | 17.4 µM (inactive) | 15.8 µM (inactive) | 20.5 µM (inactive) | 13.2 µM (inactive) | 12.9 µM (inactive) | 11.8 µM (inactive) | 16.6 µM (inactive) | 17.1 µM (inactive)
3 | O=C(Cn1c2ccc(Br)cc2c2nc3ccccc3nc21)NNC(=S)NC1CCCCC1 | 12.6 µM (inactive) | 11.9 µM (inactive) | 15.5 µM (inactive) | 17.3 µM (inactive) | 6.89 µM (inactive) | 15.6 µM (inactive) | 13.2 µM (inactive) | 18.6 µM (inactive) | 24.5 µM (inactive) | 13.3 µM (inactive) | 17.6 µM (inactive) | 19.7 µM (inactive) | 12.4 µM (inactive) | 10.6 µM (inactive) | 15.5 µM (inactive) | 18.7 µM (inactive) | 11.7 µM (inactive) | 13.9 µM (inactive) | 12.4 µM (inactive) | 19.5 µM (inactive)
4 | N#C/C(=C\c1ccc2[nH]ccc2c1)C(=O)NCCCCNC(=O)/C(C#N)=C/c1ccc2[nH]ccc2c1 | > 31.6 µM (inactive) | > 31.6 µM (inactive) | > 31.6 µM (inactive) | > 10 µM (inactive) | > 10 µM (inactive) | > 31.6 µM (inactive) | > 31.6 µM (inactive) | > 31.6 µM (inactive) | > 10 µM (inactive) | > 31.6 µM (inactive) | > 31.6 µM (inactive) | > 31.6 µM (inactive) | > 31.6 µM (inactive) | > 100 µM (inactive) | > 31.6 µM (inactive) | > 31.6 µM (inactive) | > 10 µM (inactive) | > 31.6 µM (inactive) | > 31.6 µM (inactive) | > 31.6 µM (inactive)
5 | O=C(O)c1ccccc1/C=C1/Cc2ccc3c(c2C1=O)CCC3 | 29.8 µM (inactive) | 35.5 µM (inactive) | 49 µM (inactive) | 89.3 µM (inactive) | 38.2 µM (inactive) | 38.9 µM (inactive) | 19.1 µM (inactive) | 48.1 µM (inactive) | 32.2 µM (inactive) | 33.3 µM (inactive) | 30.5 µM (inactive) | 50.8 µM (inactive) | 45.4 µM (inactive) | 44.7 µM (inactive) | 44.7 µM (inactive) | 37.8 µM (inactive) | 42.9 µM (inactive) | 30.7 µM (inactive) | 19.1 µM (inactive) | 20.9 µM (inactive)
6 | COc1ccc2c(c1OC(C)=O)C1=CC(=O)CCC13CCNC3C2 (stereo not given) | > 100 µM (inactive) | > 100 µM (inactive) | > 100 µM (inactive) | > 100 µM (inactive) | > 100 µM (inactive) | > 100 µM (inactive) | > 100 µM (inactive) | > 100 µM (inactive) | > 100 µM (inactive) | > 100 µM (inactive) | > 100 µM (inactive) | > 100 µM (inactive) | > 100 µM (inactive) | > 100 µM (inactive) | > 100 µM (inactive) | > 100 µM (inactive) | > 100 µM (inactive) | > 100 µM (inactive) | > 100 µM (inactive) | > 100 µM (inactive)
7 | Cc1cc(CN(Cc2ccccc2)Cc2nc3ccccc3[nH]2)c(O)c(CN(Cc2nc3ccccc3[nH]2)Cc2nc3ccccc3[nH]2)c1 | 6.01 µM (inactive) | 5.94 µM (inactive) | 15 µM (inactive) | 8.05 µM (inactive) | 13.5 µM (inactive) | 3.56 µM (inactive) | 19.8 µM (inactive) | 11.4 µM (inactive) | 15.6 µM (inactive) | 2.63 µM (inactive) | 6.43 µM (inactive) | 24.9 µM (inactive) | 3.94 µM (inactive) | 8.79 µM (inactive) | 4.11 µM (inactive) | 6.3 µM (inactive) | 12.4 µM (inactive) | 4.16 µM (inactive) | 3.48 µM (inactive) | 15.2 µM (inactive)
8 | CCCCCCCCCCCCOP(=O)(O)OP(=O)(O)OCC1OC(n2ccc(N)nc2=O)CC1O (stereo not given) | > 100 µM (inactive) | > 100 µM (inactive) | > 100 µM (inactive) | 38.3 µM (inactive) | > 100 µM (inactive) | > 100 µM (inactive) | > 100 µM (inactive) | > 100 µM (inactive) | > 100 µM (inactive) | > 100 µM (inactive) | > 100 µM (inactive) | > 100 µM (inactive) | > 100 µM (inactive) | > 100 µM (inactive) | > 100 µM (inactive) | > 100 µM (inactive) | > 100 µM (inactive) | > 100 µM (inactive) | > 100 µM (inactive) | > 100 µM (inactive)
